Test results reported in the supplement of paper PMC10307832.

Assays:
Assay in all cases: relative viability (nuclei count vs DMSO), 5 days (fraction); higher = more cells survive
[1] = tested on: EPLC-272H
Method in brief: (§1)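 Relative viability divides the nuclei count in treated wells by that in vehicle wells. Lung cancer cell lines were seeded in 1536-well plates, dosed by pin tool the next day, and fixed and stained after 5 days in one step with final 0.05% Triton X-100, 1% formaldehyde and 1 ug/ml Hoechst. Dosing was a single drug or a fixed anchor-drug dose plus five library-drug doses (not always all listed) in √10 steps, and values are medians of duplicate plates imaged at 4×.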

[2] = tested on: NCI-H1437
Method in brief: as §1

[3] = tested on: LCLC-103H
Method in brief: as §1

[4] = tested on: HCC-15
Method in brief: as §1

[5] = tested on: HCC-44
Method in brief: as §1

[6] = tested on: HCC-78
Method in brief: as §1

[7] = tested on: NCI-H2405
Method in brief: as §1

[8] = tested on: HCC-827
Method in brief: as §1

[9] = tested on: NCI-H727
Method in brief: as §1

[10] = tested on: NCI-H1792
Method in brief: as §1

[11] = tested on: NCI-H661
Method in brief: as §1

[12] = tested on: NCI-H2085
Method in brief: as §1

[13] = tested on: HARA
Method in brief: as §1

[14] = tested on: HCC-366
Method in brief: as §1

[15] = tested on: COR-L23
Method in brief: as §1

[16] = tested on: NCI-H1975
Method in brief: as §1

[17] = tested on: NCI-H2023
Method in brief: as §1

[18] = tested on: COR-L 105
Method in brief: as §1

[19] = tested on: UMC-11
Method in brief: as §1

[20] = tested on: SK-LU-1
Method in brief: as §1

## O=C(O)CCCCC(CCSCc1ccccc1)SCc1ccccc1 (centres undefined) [CPI-613] + CC(C)C[C@H](NC(=O)[C@H](Cc1ccccc1)NC(=O)c1cnccn1)B(O)O [Bortezomib] (partner 0.002 µM)
[1]; first compound 5 µM
  relative viability: 0.937
[1]; first compound 15.81 µM
  relative viability: 0.859
[1]; first compound 50 µM
  relative viability: 1.1
[1]; first compound 158.11 µM
  relative viability: 0.778
[1]; first compound 500 µM
  relative viability: 0.93
[2]; first compound 5 µM
  relative viability: 0.479
[2]; first compound 15.81 µM
  relative viability: 0.397
[2]; first compound 50 µM
  relative viability: 0.493
[2]; first compound 158.11 µM
  relative viability: 0.115
[2]; first compound 500 µM
  relative viability: 0.0227
[3]; first compound 5 µM
  relative viability: 1.08
[3]; first compound 15.81 µM
  relative viability: 0.94
[3]; first compound 50 µM
  relative viability: 0.966
[3]; first compound 158.11 µM
  relative viability: 0.985
[3]; first compound 500 µM
  relative viability: 1.06
[4]; first compound 5 µM
  relative viability: 0.938
[4]; first compound 15.81 µM
  relative viability: 0.932
[4]; first compound 50 µM
  relative viability: 0.905
[4]; first compound 158.11 µM
  relative viability: 0.757
[4]; first compound 500 µM
  relative viability: 0.394
[5]; first compound 5 µM
  relative viability: 0.878
[5]; first compound 15.81 µM
  relative viability: 0.832
[5]; first compound 50 µM
  relative viability: 0.913
[5]; first compound 158.11 µM
  relative viability: 0.596
[5]; first compound 500 µM
  relative viability: 0.0155
[6]; first compound 5 µM
  relative viability: 0.5
[6]; first compound 15.81 µM
  relative viability: 0.397
[6]; first compound 50 µM
  relative viability: 0.553
[6]; first compound 158.11 µM
  relative viability: 0.445
[6]; first compound 500 µM
  relative viability: 0.602
[7]; first compound 5 µM
  relative viability: 0.986
[7]; first compound 15.81 µM
  relative viability: 0.961
[7]; first compound 50 µM
  relative viability: 0.891
[7]; first compound 158.11 µM
  relative viability: 0.913
[7]; first compound 500 µM
  relative viability: 0.852
[8]; first compound 5 µM
  relative viability: 0.923
[8]; first compound 15.81 µM
  relative viability: 1.02
[8]; first compound 50 µM
  relative viability: 0.926
[8]; first compound 158.11 µM
  relative viability: 0.916
[8]; first compound 500 µM
  relative viability: 0.786
[9]; first compound 5 µM
  relative viability: 0.806
[9]; first compound 15.81 µM
  relative viability: 0.782
[9]; first compound 50 µM
  relative viability: 0.792
[9]; first compound 158.11 µM
  relative viability: 0.665
[9]; first compound 500 µM
  relative viability: 0.0714
[10]; first compound 5 µM
  relative viability: 0.889
[10]; first compound 15.81 µM
  relative viability: 0.886
[10]; first compound 50 µM
  relative viability: 0.996
[10]; first compound 158.11 µM
  relative viability: 0.836
[10]; first compound 500 µM
  relative viability: 0.893
[11]; first compound 5 µM
  relative viability: 0.749
[11]; first compound 15.81 µM
  relative viability: 0.66
[11]; first compound 50 µM
  relative viability: 0.85
[11]; first compound 158.11 µM
  relative viability: 0.709
[11]; first compound 500 µM
  relative viability: 0.709
[12]; first compound 5 µM
  relative viability: 0.984
[12]; first compound 15.81 µM
  relative viability: 0.847
[12]; first compound 50 µM
  relative viability: 0.995
[12]; first compound 158.11 µM
  relative viability: 0.873
[12]; first compound 500 µM
  relative viability: 0.194
[13]; first compound 5 µM
  relative viability: 1.02
[13]; first compound 15.81 µM
  relative viability: 1.09
[13]; first compound 50 µM
  relative viability: 1.19
[13]; first compound 158.11 µM
  relative viability: 0.716
[13]; first compound 500 µM
  relative viability: 0.114
[14]; first compound 5 µM
  relative viability: 1.01
[14]; first compound 15.81 µM
  relative viability: 0.957
[14]; first compound 50 µM
  relative viability: 1.06
[14]; first compound 158.11 µM
  relative viability: 0.391
[14]; first compound 500 µM
  relative viability: 0.0068
[15]; first compound 5 µM
  relative viability: 0.938
[15]; first compound 15.81 µM
  relative viability: 0.941
[15]; first compound 50 µM
  relative viability: 1
[15]; first compound 158.11 µM
  relative viability: 0.408
[15]; first compound 500 µM
  relative viability: 0.0074
[16]; first compound 5 µM
  relative viability: 0.445
[16]; first compound 15.81 µM
  relative viability: 0.448
[16]; first compound 50 µM
  relative viability: 0.394
[16]; first compound 158.11 µM
  relative viability: 0.174
[16]; first compound 500 µM
  relative viability: 0.0487
[17]; first compound 5 µM
  relative viability: 0.932
[17]; first compound 15.81 µM
  relative viability: 0.947
[17]; first compound 50 µM
  relative viability: 0.961
[17]; first compound 158.11 µM
  relative viability: 0.042
[17]; first compound 500 µM
  relative viability: 0.0072
[18]; first compound 5 µM
  relative viability: 0.652
[18]; first compound 15.81 µM
  relative viability: 0.859
[18]; first compound 50 µM
  relative viability: 0.542
[18]; first compound 158.11 µM
  relative viability: 0.287
[18]; first compound 500 µM
  relative viability: 0.195
[19]; first compound 5 µM
  relative viability: 0.703
[19]; first compound 15.81 µM
  relative viability: 0.496
[19]; first compound 50 µM
  relative viability: 0.692
[19]; first compound 158.11 µM
  relative viability: 0.641
[19]; first compound 500 µM
  relative viability: 0.0673
[20]; first compound 5 µM
  relative viability: 1.31
[20]; first compound 15.81 µM
  relative viability: 0.781
[20]; first compound 50 µM
  relative viability: 1.32
[20]; first compound 158.11 µM
  relative viability: 1.02
[20]; first compound 500 µM
  relative viability: 0.935

## Cc1cnc(-c2cnc(NCCNc3ccc(C#N)cn3)nc2-c2ccc(Cl)cc2Cl)[nH]1 + CC(C)C[C@H](NC(=O)[C@H](Cc1ccccc1)NC(=O)c1cnccn1)B(O)O [Bortezomib] (partner 0.002 µM)
[1]; first compound 0.08 µM
  relative viability: 0.938
[1]; first compound 0.253 µM
  relative viability: 0.84
[1]; first compound 0.8 µM
  relative viability: 0.834
[1]; first compound 2.53 µM
  relative viability: 0.903
[2]; first compound 0.08 µM
  relative viability: 0.536
[2]; first compound 0.253 µM
  relative viability: 0.475
[2]; first compound 0.8 µM
  relative viability: 0.451
[2]; first compound 2.53 µM
  relative viability: 0.472
[3]; first compound 0.08 µM
  relative viability: 1.08
[3]; first compound 0.253 µM
  relative viability: 1.04
[3]; first compound 0.8 µM
  relative viability: 0.983
[3]; first compound 2.53 µM
  relative viability: 0.912
[4]; first compound 0.08 µM
  relative viability: 1.01
[4]; first compound 0.253 µM
  relative viability: 0.575
[4]; first compound 0.8 µM
  relative viability: 1
[4]; first compound 2.53 µM
  relative viability: 0.969
[5]; first compound 0.08 µM
  relative viability: 0.851
[5]; first compound 0.253 µM
  relative viability: 0.855
[5]; first compound 0.8 µM
  relative viability: 0.91
[5]; first compound 2.53 µM
  relative viability: 0.932
[6]; first compound 0.08 µM
  relative viability: 0.645
[6]; first compound 0.253 µM
  relative viability: 0.457
[6]; first compound 0.8 µM
  relative viability: 0.443
[6]; first compound 2.53 µM
  relative viability: 0.41
[7]; first compound 0.08 µM
  relative viability: 0.68
[7]; first compound 0.253 µM
  relative viability: 1.02
[7]; first compound 0.8 µM
  relative viability: 0.967
[7]; first compound 2.53 µM
  relative viability: 0.98
[8]; first compound 0.08 µM
  relative viability: 1.01
[8]; first compound 0.8 µM
  relative viability: 0.877
[8]; first compound 2.53 µM
  relative viability: 1.07
[9]; first compound 0.08 µM
  relative viability: 0.877
[9]; first compound 0.253 µM
  relative viability: 0.808
[9]; first compound 0.8 µM
  relative viability: 0.982
[9]; first compound 2.53 µM
  relative viability: 0.889
[10]; first compound 0.08 µM
  relative viability: 0.89
[10]; first compound 0.253 µM
  relative viability: 0.657
[10]; first compound 0.8 µM
  relative viability: 0.876
[10]; first compound 2.53 µM
  relative viability: 0.915
[11]; first compound 0.08 µM
  relative viability: 0.951
[11]; first compound 0.253 µM
  relative viability: 0.789
[11]; first compound 0.8 µM
  relative viability: 0.836
[11]; first compound 2.53 µM
  relative viability: 0.719
[12]; first compound 0.08 µM
  relative viability: 1.12
[12]; first compound 0.253 µM
  relative viability: 1.17
[12]; first compound 0.8 µM
  relative viability: 0.957
[12]; first compound 2.53 µM
  relative viability: 1.02
[13]; first compound 0.08 µM
  relative viability: 1.05
[13]; first compound 0.253 µM
  relative viability: 1.09
[13]; first compound 0.8 µM
  relative viability: 1.08
[13]; first compound 2.53 µM
  relative viability: 1.08
[14]; first compound 0.08 µM
  relative viability: 1.09
[14]; first compound 0.253 µM
  relative viability: 0.989
[14]; first compound 0.8 µM
  relative viability: 0.967
[14]; first compound 2.53 µM
  relative viability: 1.01
[15]; first compound 0.08 µM
  relative viability: 1.04
[15]; first compound 0.253 µM
  relative viability: 0.997
[15]; first compound 0.8 µM
  relative viability: 1.14
[15]; first compound 2.53 µM
  relative viability: 0.943
[16]; first compound 0.08 µM
  relative viability: 0.412
[16]; first compound 0.253 µM
  relative viability: 0.391
[16]; first compound 0.8 µM
  relative viability: 0.425
[16]; first compound 2.53 µM
  relative viability: 0.328
[17]; first compound 0.08 µM
  relative viability: 1.44
[17]; first compound 0.253 µM
  relative viability: 0.651
[17]; first compound 0.8 µM
  relative viability: 1.01
[17]; first compound 2.53 µM
  relative viability: 0.978
[18]; first compound 0.08 µM
  relative viability: 0.898
[18]; first compound 0.253 µM
  relative viability: 0.754
[18]; first compound 0.8 µM
  relative viability: 0.62
[18]; first compound 2.53 µM
  relative viability: 0.445
[19]; first compound 0.08 µM
  relative viability: 0.759
[19]; first compound 0.253 µM
  relative viability: 0.595
[19]; first compound 0.8 µM
  relative viability: 0.516
[19]; first compound 2.53 µM
  relative viability: 0.659
[20]; first compound 0.08 µM
  relative viability: 1.26
[20]; first compound 0.253 µM
  relative viability: 0.993
[20]; first compound 0.8 µM
  relative viability: 1.34
[20]; first compound 2.53 µM
  relative viability: 1.13
